Experimental data as given in ChEMBL document CHEMBL5154907, “Discovery and Anti-Inflammatory Activity Evaluation of a Novel CDK8 Inhibitor through Upregulation of IL-10 for the Treatment of Inflammatory Bowel Disease In Vivo” (J Med Chem, 2022).
The source made the active and inactive calls. No cut-off for these calls is given here.

Key:
[1] = target: Cyclin-dependent kinase 8 (Homo sapiens) (UniProt P49336); experiment: Inhibition of CDK8 in human HCT-116 cells assessed as STAT-1 phosphorylation at Ser727 at 1 to 4 uM treated for 24 hrs by western blot analysis; type: cell-based; conditions: dose 1-4 µM
Sequence of Cyclin-dependent kinase 8 (Homo sapiens) (P49336 whole entry): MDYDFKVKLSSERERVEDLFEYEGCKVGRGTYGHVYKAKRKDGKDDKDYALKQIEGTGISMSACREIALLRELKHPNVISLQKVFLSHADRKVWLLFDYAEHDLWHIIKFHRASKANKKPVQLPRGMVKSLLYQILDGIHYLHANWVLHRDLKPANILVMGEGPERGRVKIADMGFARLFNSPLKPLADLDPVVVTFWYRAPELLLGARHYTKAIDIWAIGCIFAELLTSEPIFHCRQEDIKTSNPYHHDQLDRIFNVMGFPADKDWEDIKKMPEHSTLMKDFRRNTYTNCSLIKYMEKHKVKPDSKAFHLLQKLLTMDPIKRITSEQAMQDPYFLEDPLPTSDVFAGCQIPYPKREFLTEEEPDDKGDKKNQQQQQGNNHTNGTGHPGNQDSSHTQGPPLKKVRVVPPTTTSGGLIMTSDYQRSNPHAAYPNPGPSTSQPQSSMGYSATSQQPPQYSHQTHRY

[2] = tested on: Mus musculus; experiment: Anti-inflammatory activity in DSS-induced C57BL/6 mouse model of inflammatory bowel disease assessed as increase in JAK1 phosphorylation in colon tissue at 5 to 20 mg/kg, po measured after 10 days by western blot analysis; type: functional, organism-based; conditions: dose 5-20 mg/kg, time 10.0 day
[3] = tested on: Mus musculus; experiment: Anti-inflammatory activity in C57BL/6 mouse model of inflammatory bowel disease assessed as reduction in DSS-induced crypt loss in colon tissue at 5 to 20 mg/kg, po daily measured after 10 days by hematoxylin and eosin staining based histopathological analysis; type: functional, organism-based; conditions: dose 5-20 mg/kg, time 10.0 day
[4] = target: Myeloid differentiation primary response protein MyD88 (Mus musculus) (UniProt P22366); experiment: Inhibition of MyD88 expression in R848-stimulated mouse BMDC cells at 1 to 4 uM treated for 2 hrs followed by R848 stimulation for 12 hrs by western blot analysis; type: cell-based; conditions: dose 1-4 µM, time 14.0 hrs, DDE = dose-dependent effect
Sequence of Myeloid differentiation primary response protein MyD88 (Mus musculus) (P22366 whole entry): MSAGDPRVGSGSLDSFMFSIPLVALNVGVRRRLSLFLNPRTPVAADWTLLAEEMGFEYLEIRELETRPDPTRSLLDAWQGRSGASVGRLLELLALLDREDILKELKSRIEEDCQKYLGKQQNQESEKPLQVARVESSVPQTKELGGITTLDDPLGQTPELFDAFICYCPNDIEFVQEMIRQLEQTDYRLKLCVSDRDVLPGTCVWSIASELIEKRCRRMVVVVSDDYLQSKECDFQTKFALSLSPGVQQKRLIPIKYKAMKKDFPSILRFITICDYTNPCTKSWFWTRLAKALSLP

[5] = target: CDK8/Cyclin C (Homo sapiens) (UniProt P49336+P24863); experiment: Inhibition of recombinant full length His tagged human CDK8/Cyclin C expressed in Baculovirus at 200 nM incubated for 60 mins in presence of ATP by ADP-Glo kinase assay
[6] = target: Cyclin-dependent kinase 8 (Homo sapiens) (UniProt P49336); experiment: Binding affinity to CDK8 in human HCT-116 cells assessed as increase in thermal stability tolerance at 10 uM treated for 4 hrs followed by compound washout by CETSA assay; type: cell-based
[7] = Cmax in Sprague-Dawley rat at 10 mg/kg, po measured for 3 to 1440 mins by HPLC analysis; type: ADME, organism-based; conditions: in vivo
[8] = tested on: Mus musculus; experiment: Anti-inflammatory activity in C57BL/6 mouse model of inflammatory bowel disease assessed as reduction in DSS-induced cellular infiltration in colon tissue at 5 to 20 mg/kg, po daily measured after 10 days by hematoxylin and eosin staining based histopathological analysis; type: functional, organism-based; conditions: dose 5-20 mg/kg, time 10.0 day
[9] = Tmax in Sprague-Dawley rat at 10 mg/kg, po measured for 3 to 1440 mins by HPLC analysis; type: ADME, organism-based; conditions: in vivo, time 3-1440 min
[10] = Bioavailability in Sprague-Dawley rat at 10 mg/kg, po measured for 3 to 1440 mins by HPLC analysis; type: ADME, organism-based; conditions: in vivo, time 3-1440 min
[11] = target: T1, Toll-like receptor 7 (Mus musculus) (UniProt P58681); experiment: Inhibition of TLR7 expression in R848-stimulated mouse BMDC cells at 1 to 4 uM treated for 2 hrs followed by R848 stimulation for 12 hrs by western blot analysis; type: cell-based; conditions: dose 1-4 µM, time 14.0 hrs, DDE = dose-dependent effect
T1 sequence (whole entry): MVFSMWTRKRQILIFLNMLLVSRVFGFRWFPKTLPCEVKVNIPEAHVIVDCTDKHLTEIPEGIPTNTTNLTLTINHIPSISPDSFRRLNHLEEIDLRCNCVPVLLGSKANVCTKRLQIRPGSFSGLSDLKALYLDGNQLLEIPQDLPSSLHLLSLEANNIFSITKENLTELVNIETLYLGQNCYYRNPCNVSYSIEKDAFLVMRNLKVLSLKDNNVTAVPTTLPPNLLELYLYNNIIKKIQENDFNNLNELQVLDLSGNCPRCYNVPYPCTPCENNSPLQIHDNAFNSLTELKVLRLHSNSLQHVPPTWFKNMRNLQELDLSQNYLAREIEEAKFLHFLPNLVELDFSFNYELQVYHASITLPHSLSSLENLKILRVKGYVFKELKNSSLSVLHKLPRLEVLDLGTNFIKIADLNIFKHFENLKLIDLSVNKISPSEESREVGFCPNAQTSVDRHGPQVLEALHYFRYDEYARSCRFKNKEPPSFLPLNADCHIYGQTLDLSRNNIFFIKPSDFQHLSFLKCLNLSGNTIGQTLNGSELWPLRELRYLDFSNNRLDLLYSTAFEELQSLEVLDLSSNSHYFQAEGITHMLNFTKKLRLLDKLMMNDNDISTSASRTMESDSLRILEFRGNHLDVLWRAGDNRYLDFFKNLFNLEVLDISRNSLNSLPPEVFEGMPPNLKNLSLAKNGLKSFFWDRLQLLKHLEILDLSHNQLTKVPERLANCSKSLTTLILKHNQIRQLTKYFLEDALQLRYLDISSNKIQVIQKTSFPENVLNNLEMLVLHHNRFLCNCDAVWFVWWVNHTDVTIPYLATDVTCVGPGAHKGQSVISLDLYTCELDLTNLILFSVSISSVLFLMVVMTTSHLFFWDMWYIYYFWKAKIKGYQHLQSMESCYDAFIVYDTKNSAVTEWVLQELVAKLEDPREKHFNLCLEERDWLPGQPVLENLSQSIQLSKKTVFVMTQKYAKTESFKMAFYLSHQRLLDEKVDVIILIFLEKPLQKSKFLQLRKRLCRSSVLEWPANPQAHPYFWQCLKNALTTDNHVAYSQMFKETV

[12] = MRT in Sprague-Dawley rat at 10 mg/kg, po measured for 3 to 1440 mins by HPLC analysis; type: ADME, organism-based; conditions: in vivo, time 3-1440 min
[13] = Acute toxicity in 12 hr fasted ICR mouse assessed as body weight loss at 2000 mg/kg, po measured daily for 7 days; type: organism-based; conditions: in vivo, 168 h, time 7 day
[14] = tested on: Mus musculus; experiment: Anti-inflammatory activity in C57BL/6 mouse model of inflammatory bowel disease assessed as reversal of DSS-induced MyD88 expression in colon tissue at 5 to 20 mg/kg, po measured after 10 days by western blot analysis; type: functional, organism-based; conditions: dose 5-20 mg/kg, time 10.0 day
[15] = tested on: Mus musculus; experiment: Anti-inflammatory activity in DSS-induced C57BL/6 mouse model of inflammatory bowel disease assessed as increase in STAT3 phosphorylation in colon tissue at 5 to 20 mg/kg, po measured after 10 days by western blot analysis; type: functional, organism-based; conditions: dose 5-20 mg/kg, time 10.0 day
[16] = Acute toxicity in 12 hr fasted ICR mouse assessed as effect on liver at 2000 mg/kg, po measured after 7 days by hematoxylin and eosin staining based histopathological analysis; type: organism-based; conditions: in vivo, 168 h, time 7 day
[17] = Acute toxicity in 12 hr fasted ICR mouse assessed as effect on kidney at 2000 mg/kg, po measured after 7 days by hematoxylin and eosin staining based histopathological analysis; type: organism-based; conditions: in vivo, 168 h, time 7 day
[18] = tested on: Mus musculus; experiment: Anti-inflammatory activity in C57BL/6 mouse model of inflammatory bowel disease assessed as increase in DSS-induced IL-10 levels in serum administered orally daily measured after 10 days by ELISA method; type: functional, organism-based; conditions: dose 5-20 mg/kg, route po, time 10.0 day, DDE = dose-dependent effect
[19] = tested on: Mus musculus; experiment: Anti-inflammatory activity in C57BL/6 mouse model of inflammatory bowel disease assessed as decrease in DSS-induced ERK phosphorylation in colon tissue at 5 to 20 mg/kg, po measured after 10 days by western blot analysis; type: functional, organism-based; conditions: dose 5-20 mg/kg, time 10.0 day, DDE = dose-dependent effect
[20] = tested on: BMDC; experiment: Anti-inflammatory activity against R848-stimulated mouse BMDC cells assessed as upregulation of IL-10 production by ELISA method; type: functional, cell-based
[21] = Stability of compound in human liver microsome assessed as intrinsic clearance by HPLC analysis; type: ADME; conditions: liver microsomes, read-out: CLH

## CCc1ccccc1NC(=O)c1cncc(-c2ccc(C(=O)N3CCNCC3)cc2)c1
[1]
  inhibition: Active
[2]
  Activity: Active
[3]
  Activity: Active
[4]
  inhibition: Dde
[5]
  inhibition: 85%
[6]
  Activity: Active
[7]
  Cmax: 237 ng/mL
[8]
  Activity: Active
[9]
  Tmax: 0.73 h
[10]
  bioavailability: 29.3%
[11]
  inhibition: Dde
[12]
  MRT: 2.03 h
[13]
  Activity: Non-Toxic
[14]
  Activity: Active
[15]
  Activity: Active
[16]
  Activity: Non-Toxic
[17]
  Activity: Non-Toxic
[18]
  Activity: Dde
[19]
  Activity: Dde
[20]
  Activity: Active
[21]
  microsomal CLint: 5.5 µL/min/mg
